# Experiments:
# Assay type in all cases: cell-based
# human G-CSF promoter = conditions: for GCSF fold induction relative to solvent control: Table 2 A) transcriptional activators; for GCSF fold induction relative to solvent control / GCSF fold inhibition relative to solvent control: G21 cells, 6 hours, high-throughput screen; for GCSF fold inhibition relative to solvent control: Table 2 B) transcriptional inhibitors
# Source text: A human bladder carcinoma cell line (U5637, ATCC number HTB 9) was used for transfection of plasmids containing the human Granulocyte-Colony Stimulating Factor (G-CSF) promoter (see below) and was maintained in RPMI medium supplemented with 10% FCS. For HTP screening, transfected 5637 clones were transferred to a serum free defined medium identical to that used for the NIH/3T3 clones.
# The sequences of OL-1, OL-2 and OL-5 recognize the G-CSF promoter region, OL-4 recognizes the first intron/exon junction and OL-3 recognizes sequences within the second exon (32). One of the clones isolated from the leukocyte library using these oligonucleotide probes contains a 3.5 kb SalI-BamHI fragment of G-CSF genomic sequence consisting of 3.3 kb of promoter sequence and two hundred base pairs of the coding region. This fragment was inserted into the vector pGEM-7-Zf (Promega, Madison, Wis.) which had previously been digested with SalI/BamHI, resulting in the vector pJM710 (FIG. 7). pJM710 was then digested with PstI, and the resulting 1.6 kb fragment containing G-CSF upstream sequences and the first 15 bases of the G-CSF leader sequence was inserted into the PstI site of pGEM5-Luci (FIG. 8) to generate pG-Lucl (FIG. 9). This construct was then used for transfection of 5637 human bladder carcinoma cells as described below in section E3. pGEM5-Luci (FIG. 8) had previously been constructed by inserting the […]/SalI fragment from pSVLuci (FIG. 2) containing the luciferase coding sequence and the SV40 late polyadenylation signal into pGEM 5-Zf (Promega, Madison Wis.) digested with XhoI/SalI.
# pG-LUC1 (FIG. 9) and pRSVNeo were co-transfected into 5637 human bladder carcinoma cells as described above. Selection of G418 resistant clones was as described above except for using a concentration of 0.1 mg/ml G418. Analysis of cell clones was performed as above except that a known inducer of G-CSF expression (1-5 µg/ml lipopolysaccharide (LPS), E. coli serotype 055:b5, Difco, Detroit, Mich. or Sigma, St. Louis, Mo.) was used in place of dexamethasone.
# (§1) Cell plating: Dynatech Microlite 96 well plates were custom pretreated for cell attachment by Dynatech Laboratories, Inc. (Chantilly, Va.). Alternatively, the 96 well plates were treated with 50 µl per well of human fibronectin (hFN, 15 µg/ml in PBS, Collaborative Research, Bedford, Mass.) overnight at 37 C. hFN-treated plates were washed with PBS using an Ultrawash 2 Microplate Washer (Dynatech Labs), to remove excess hFN prior to cell plating. M10, 532, and G21 cells maintained in their respective serum media (with 0.2 mg/ml G418) were washed with PBS, harvested by trypsinization, and counted using a hemocytometer and the Trypan Blue exclusion method according to protocols provided by Sigma, St. Louis, Mo. Chemical Company. Cells were then diluted into serum free defined media (with 0.2 mg/ml G418), and 0.2 ml of cell suspension per well was plated onto Dynatech treated plates (532 and G21) or hFN-treated plates (M10) using a Cetus Pro/Pette (Cetus, Emeryville Calif.). Plates were incubated overnight at 37 C in a humidified 5% CO2 atmosphere.
# (§2) Addition of Chemicals to Cells: Chemicals from the Oncogene Science file were dissolved in DMSO at concentrations of 3-30 mg/ml. A liquid handling laboratory work station (RSP 5052, Tecan U.S. Chapel Hill, N.C.) was used to dilute the chemicals (three dilutions; 5 fold, 110 fold, and 726 fold). 10 11 of each dilution were added to each of quadruplicate samples of cells contained in the wells of 96-well Dyantech Microlite Plates. […]
# [1] = tested on: human growth hormone promoter; conditions: for hGH fold induction relative to solvent control: Table 2 A) transcriptional activators; for hGH fold induction relative to solvent control / hGH fold inhibition relative to solvent control: 532 cells, 6 hours, high-throughput screen; for hGH fold inhibition relative to solvent control: Table 2 B) transcriptional inhibitors
# Source text: A rat pituitary cell line, designated GC, (4, 25) was used for transfection of plasmids containing the human growth hormone promoter (see below) and was maintained in DMEM and Ham's F12 medium (1:1), supplemented with 12.5% FCS. For HTP screening, transfected GC clones were transferred to serum free defined medium consisting of DMEM and Ham's F12 medium (1:1) supplemented with growth factors, hormones and nutrients as described previously (17, 5).
# The SalI-XhoI fragment of pSVLuci (FIG. 2) containing the luciferase coding sequences and the SV40 late polyadenylation site was inserted into pUC 8 (Biorad, Richmond, Calif.), which has been linearized by a SmaI/HinCII digestion and ligated to XhoI linkers (New England Biolabs, Beverly, Mass.). The new plasmid thus generated (pUXLuci; FIG. 4) was linearized by XhoI digestion followed by incubation with the Klenow fragment of E. coli DNA polymerase and the four deoxyribonucleotides to fill in the single-stranded ends of the vector. This linear (5.1 KB) form of pUXLuci was then ligated to the filled-in 550 bP HindIII-XbaI fragment of the plasmid phGH:CAT (FIG. 5) (25). Human growth hormone promoter sequences located on the HindIII-XbaI fragment were thus fused to the luciferase coding sequences located on pUXLuci generating the plasmid phGH-Luci (FIG. 6), which was used in transfections of GC cells as described below (Section E2).
# phGH-LUCI (FIG. 6) and pRSVNeo, an antibiotic resistance plasmid (14), were co-transfected into GC rat pituitary cells as described above. Selection of G418-resistant cell clones was described above except for using a concentration of 0.2 mg/ml G418. Analysis of the cell clones was performed as above, except that known inducers of hGH expression (10-100 nM rat growth hormone releasing factor (rGRF, Bachem, Torrance, Calif.) and 10 μm forskolin (Sigma, St. Louis, Mo.) were used in place of dexamethasone. One clone, 532, was selected for further use in the high throughput screen.
# as §1
# Addition of Chemicals to Cells: Chemicals from the Oncogene Science file were dissolved in DMSO at concentrations of 3-30 mg/ml. A liquid handling laboratory work station (RSP 5052, Tecan U.S. Chapel Hill, N.C.) was used to dilute the chemicals (three dilutions; 5 fold, 110 fold, and 726 fold). 10 11 of each dilution were added to each of quadruplicate samples of cells contained in the wells of 96-well Dyantech Microlite Plates. Cell plates were then shaken on a microplate shaker (Dyantech, medium setting, 30 sec.) and incubated for 6 hours at 37 C, 5% CO2.
# Bioluminescence Assay: After incubation with OSI-file chemicals, cell plates were washed 3 times with PBS using an Ultrawash 2 Microplate Washer (Dyantech Labs) and 75 µl of Lysis Buffer 2 were added to each well (Lysis Buffer 2 is the same as Lysis buffer 1 exept that the ATP and DTT concentrations were changed to 2.67 mM and 133 mM, respectively). […]
# [2] = tested on: mouse mammary tumor virus (MMTV) promoter; conditions: for MMTV fold induction relative to solvent control: Table 2 A) transcriptional activators; for MMTV fold induction relative to solvent control / MMTV fold inhibition relative to solvent control: M10 cells, 6 hours, high-throughput screen; for MMTV fold inhibition relative to solvent control: Table 2 B) transcriptional inhibitors; for effect of steroids on luciferase expression in the MMTV reporter cell line M10: FIG. 43
# Source text: NIH/3T3 fibroblast cells (ATCC number CRL 1658) were used for transfection of plasmids containing the mouse mammary tumor virus (MMTV) promoter linked to firefly luciferase coding sequences (see below). Cells were propagated in Dulbecco's modified Eagle's medium (DMEM) obtained from Gibco, Grand Island, N.Y. and supplemented with 10% FCS. For high-throughput (HTP) screening, transfected NIH/3T3 clones were transferred to serum free defined medium consisting of Iscove's modified Eagle's medium (IMEM) and Ham's F12 medium (1:1) supplemented with growth factors, hormones and nutrients as described previously (43).
# The firefly luciferase gene was removed from the plant expression plasmid pDO432 (33) (FIG. 1) as a 1.9 kb BamHI fragment and cloned into the BamHI site of pSVL (Pharmacia, Piscataway, N.J.), a mammalian expression vector containing the SV40 promoter. The resulting plasmid (pSVLuci; FIG. 2) was digested with XhoI and SalI to produce a 2.4 kb fragment containing the luciferase coding sequences and the SV40 late polyadenylation site. This fragment was inserted into the XhoI site of pMSG (Pharmacia, Piscataway, N.J.), a eukaryotic expression vector containing the MMTV promoter. The resulting MMTV promoter-luciferase fusion plasmid (pMLuci; FIG. 3) was used to transfect NIH/3T3 cells as described below (section E1). Similar constructs can be made using luciferase vectors from Clontech (Palo Alto, Calif.).
# pMluci (FIG. 3) and pSV2Neo, an antibiotic resistance plasmid (34), were co-transfected into NIH/3T3 mouse fibroblast cells using the calcium phosphate precipitation method (15) with a commercially available kit (Pharmacia, Piscataway N.J.). Two days later, cells were transferred to media containing 0.4 mg/ml G418 and were grown for an additional 10-14 days. G418-resistant clones were isolated by standard methods. Once sufficient cell numbers were obtained, clones were analyzed based on several criteria: constitutive luciferase production, induction of luciferase expression by dexamethasone (1 μm, Sigma, St. Louis, Mo.), satisfactory attachment to microtiter plates used in the high-throughput screen (see Section G) and acceptable standard deviation in multiple luciferase expression assays (see below for assay protocol). This analysis was carried out using the luciferase assay conditions described in sections F and G. Of the clones which satisfied the above criteria for the high throuphput screen, one clone, M10, was selected for use.
# as §1, §2
compound,measurement,setting,value
"CC(CCl)CBr (single isomer, unassigned) [Chemical 2096]",GCSF fold induction relative to solvent control,human G-CSF promoter,3.27 fold
same,hGH fold induction relative to solvent control,[1],0.61 fold
same,MMTV fold induction relative to solvent control,[2],0.89 fold
Cc1cc(-c2ccc(S(=O)(=O)[O-])cc2)c2ccc3c(-c4ccc(S(=O)(=O)[O-])cc4)cc(C)nc3c2n1.O.[Na+].[Na+] [Chemical 189],GCSF fold induction relative to solvent control,human G-CSF promoter,1.06 fold
same,hGH fold induction relative to solvent control,[1],1.47 fold
same,MMTV fold induction relative to solvent control,[2],2.80 fold
Nc1nc(=O)n(C2CC(O)C(CO)O2)cc1Br (stereo not shown) [Chemical 542],GCSF fold induction relative to solvent control,human G-CSF promoter,6.28 fold
same,hGH fold induction relative to solvent control,[1],1.08 fold
same,MMTV fold induction relative to solvent control,[2],1.26 fold
O=c1[nH]c(=O)n(C2CC(O)C(CO)O2)cc1Br (stereo not shown) [Chemical 543],GCSF fold induction relative to solvent control,human G-CSF promoter,7.17 fold
same,hGH fold induction relative to solvent control,[1],0.72 fold
same,MMTV fold induction relative to solvent control,[2],0.98 fold
O=C(OC(C(=O)O)C(OC(=O)c1ccccc1)C(=O)O)c1ccccc1 (stereo not shown) [Chemical 578],GCSF fold inhibition relative to solvent control,human G-CSF promoter,0.65 fold
same,hGH fold inhibition relative to solvent control,[1],4.00 fold
same,MMTV fold inhibition relative to solvent control,[2],0.91 fold
C1CCNCC1 [Chemical 759],GCSF fold inhibition relative to solvent control,human G-CSF promoter,0.64 fold
Nc1ccc2nc3ccc(N)cc3[s+]c2c1 [Chemical 836],GCSF fold induction relative to solvent control,human G-CSF promoter,3.20 fold
same,hGH fold induction relative to solvent control,[1],0.23 fold
same,MMTV fold induction relative to solvent control,[2],0.58 fold
CC1(C)OC2CC3C4CCC5=CC(=O)C=CC5(C)C4(F)C(O)CC3(C)C2(C(=O)CO)O1 (stereo not shown) [Chemical 848],GCSF fold induction relative to solvent control,human G-CSF promoter,0.75 fold
same,hGH fold induction relative to solvent control,[1],1.28 fold
same,MMTV fold induction relative to solvent control,[2],2.43 fold
CC1(C(=O)OCC(F)(F)C(F)(F)C(F)(F)C(F)(F)C(F)(F)C(F)F)CCC(C(=O)OCC(F)(F)C(F)(F)C(F)(F)C(F)(F)C(F)(F)C(F)F)C1(C)C (stereo not shown) [Chemical 1592],GCSF fold induction relative to solvent control,human G-CSF promoter,3.20 fold
same,hGH fold induction relative to solvent control,[1],0.74 fold
same,MMTV fold induction relative to solvent control,[2],1.34 fold
CC1(C)C2CCC1(C)C(O)C2 (stereo not shown) [Chemical 1635],GCSF fold inhibition relative to solvent control,human G-CSF promoter,0.71 fold
same,hGH fold inhibition relative to solvent control,[1],9.09 fold
same,MMTV fold inhibition relative to solvent control,[2],0.99 fold
Cc1cc(=O)oc2c(CN(CC(=O)O)CC(=O)O)c(O)ccc12 [Chemical 1712],GCSF fold inhibition relative to solvent control,human G-CSF promoter,0.64 fold
CC12CCC(CC1=O)C2(C)C (stereo not shown) [Chemical 1720],GCSF fold inhibition relative to solvent control,human G-CSF promoter,0.65 fold
same,hGH fold inhibition relative to solvent control,[1],4.76 fold
same,MMTV fold inhibition relative to solvent control,[2],0.66 fold
"C[C@]12CCC(=O)C=C1CC[C@@H]1[C@@H]2[C@@H](O)C[C@]2(C=O)[C@@H](C(=O)CO)CC[C@@H]12 [aldosterone, reference compound]",effect of steroids on luciferase expression in the MMTV reporter cell line M10,[2],stimulates clone M10
"C[C@@H]1C[C@H]2[C@@H]3CCC4=CC(=O)C=C[C@]4(C)[C@@]3(F)[C@@H](O)C[C@]2(C)[C@@]1(O)C(=O)CO [dexamethasone, reference compound]",stimulation of clone M10 by known inducer,[2]; 1 μm dexamethasone,11.6 fold
"CC(=O)[C@H]1CC[C@H]2[C@@H]3CCC4=CC(=O)CC[C@]4(C)[C@H]3CC[C@]12C [progesterone, reference compound]",effect of steroids on luciferase expression in the MMTV reporter cell line M10,[2],did not
lipopolysaccharide [reference compound],stimulation of clone G21 by known inducer,human G-CSF promoter; 5 µg/ml lipopolysaccharide,5.7 fold
"rat growth hormone releasing factor: rat growth hormone releasing factor (rGRF, Bachem), known inducer of hGH expression (HADAIFTSSYRRILGQLYARKLLHEIMNRQQGERNQEQRSRFN; Somatoliberin; UniProt P09916 31-73, looked up) [reference compound]",stimulation of clone 532 by known inducer,[1]; 100 nM rat growth hormone releasing factor,2.2 fold

# Source: US6376175B1, “Methods of discovering chemicals capable of functioning as gene expression modulators” (OSI Pharmaceuticals, Inc., priority 1989, dated 2002)
